Experimental data taken from ChEMBL document CHEMBL1139023, “The reversed binding of beta-phenethylamine inhibitors of DPP-IV: X-ray structures and properties of novel fragment and elaborated inhibitors” (Bioorg Med Chem Lett, 2006).

Experiments:
[1] = target: Dipeptidyl peptidase 4 (Sus scrofa, UniProt P22411); test: (§1) Inhibition of DPP4 by continuous fluorimetric assay
[2] = target: Dipeptidyl peptidase 4 (Homo sapiens, UniProt P27487); test: as §1
[3] = target: Dipeptidyl peptidase 4 (Sus scrofa) (UniProt P22411); test: Inhibition of DPP4 by continuous fluorimetric assay at 100 nM
Chain of Dipeptidyl peptidase 4 (Sus scrofa) (P22411 whole entry, looked up): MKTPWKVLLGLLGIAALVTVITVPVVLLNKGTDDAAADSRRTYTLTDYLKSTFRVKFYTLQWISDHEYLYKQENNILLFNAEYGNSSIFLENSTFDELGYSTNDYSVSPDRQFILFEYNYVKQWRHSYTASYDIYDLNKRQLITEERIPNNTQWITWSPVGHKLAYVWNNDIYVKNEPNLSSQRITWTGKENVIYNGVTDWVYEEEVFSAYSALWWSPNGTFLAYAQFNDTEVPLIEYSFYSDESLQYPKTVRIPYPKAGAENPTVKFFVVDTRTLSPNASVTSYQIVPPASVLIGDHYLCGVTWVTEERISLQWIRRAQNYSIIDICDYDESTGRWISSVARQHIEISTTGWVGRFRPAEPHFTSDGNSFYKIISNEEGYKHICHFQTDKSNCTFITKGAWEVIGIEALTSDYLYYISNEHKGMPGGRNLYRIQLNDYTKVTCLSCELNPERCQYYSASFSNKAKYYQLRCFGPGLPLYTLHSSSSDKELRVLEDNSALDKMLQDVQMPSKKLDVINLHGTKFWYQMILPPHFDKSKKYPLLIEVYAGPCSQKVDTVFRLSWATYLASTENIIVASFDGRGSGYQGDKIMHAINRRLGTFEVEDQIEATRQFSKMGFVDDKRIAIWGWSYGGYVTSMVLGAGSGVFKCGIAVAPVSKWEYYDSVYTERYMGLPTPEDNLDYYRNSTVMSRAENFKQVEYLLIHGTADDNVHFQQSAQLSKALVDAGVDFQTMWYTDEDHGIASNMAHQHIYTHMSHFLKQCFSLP

Chain of Dipeptidyl peptidase 4 (Sus scrofa, UniProt P22411) (P22411 whole entry): as the sequence (P22411 whole entry, looked up) above
Chain of Dipeptidyl peptidase 4 (Homo sapiens, UniProt P27487) (P27487 whole entry): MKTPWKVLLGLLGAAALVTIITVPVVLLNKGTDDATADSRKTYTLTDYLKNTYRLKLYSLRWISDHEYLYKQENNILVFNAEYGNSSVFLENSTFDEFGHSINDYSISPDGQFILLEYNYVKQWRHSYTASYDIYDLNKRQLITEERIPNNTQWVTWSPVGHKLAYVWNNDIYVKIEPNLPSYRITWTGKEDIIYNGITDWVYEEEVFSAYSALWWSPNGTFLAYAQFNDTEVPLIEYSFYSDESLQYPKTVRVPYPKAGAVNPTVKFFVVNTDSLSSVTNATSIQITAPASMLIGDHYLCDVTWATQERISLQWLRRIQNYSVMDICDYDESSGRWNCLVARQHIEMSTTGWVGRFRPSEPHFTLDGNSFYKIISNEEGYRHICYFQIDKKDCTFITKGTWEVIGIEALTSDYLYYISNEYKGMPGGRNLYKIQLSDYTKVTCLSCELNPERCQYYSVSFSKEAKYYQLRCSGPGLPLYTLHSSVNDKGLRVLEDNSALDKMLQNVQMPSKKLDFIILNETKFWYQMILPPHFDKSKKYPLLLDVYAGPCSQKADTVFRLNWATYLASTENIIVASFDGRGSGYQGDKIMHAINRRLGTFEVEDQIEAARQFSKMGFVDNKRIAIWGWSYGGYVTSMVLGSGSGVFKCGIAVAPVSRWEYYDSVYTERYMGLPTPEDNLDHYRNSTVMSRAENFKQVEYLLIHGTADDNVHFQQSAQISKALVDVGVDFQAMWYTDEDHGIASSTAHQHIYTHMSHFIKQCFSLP

IC50 [1] | IC50 [2] | inhibition [3] | SMILES
46 µM |  |  | NCC(c1ccccc1Cl)N1CCOCC1 (stereo not given)
0.41 µM |  |  | N[C@@H](CC(=O)N1CCC[C@H]1CNC(=O)c1ccccc1)Cc1ccccc1F
 | 0.023 µM | 60% | NC(=O)[C@@H]1Cc2ccccc2CN1C(=O)C[C@H](N)Cc1ccccc1F
30 µM |  |  | NCC1(c2ccccc2)CCCC1
